Measurements: US20050289668A1, “Plants with increased levels of one or more amino acids” (priority 2003, published 2005)
Numbering of substitutions follows the chain as printed.

How the values were obtained:
[1] = target: T1, E. coli threonine deaminase (ilvA) variant L481P, SEQ ID NO: 6 (Escherichia coli, UniProt P04968, A120R/A140R/G195C/G334V/L481P/V121L); test: Threonine deaminase steady state kinetics, L481P; type: biochemical
T1 construct: made in house; host or cells: E. coli (pSE380, crude extract)
T1 sequence (P04968 whole entry A120R/V121L/A140R/G195C/G334V/L481P): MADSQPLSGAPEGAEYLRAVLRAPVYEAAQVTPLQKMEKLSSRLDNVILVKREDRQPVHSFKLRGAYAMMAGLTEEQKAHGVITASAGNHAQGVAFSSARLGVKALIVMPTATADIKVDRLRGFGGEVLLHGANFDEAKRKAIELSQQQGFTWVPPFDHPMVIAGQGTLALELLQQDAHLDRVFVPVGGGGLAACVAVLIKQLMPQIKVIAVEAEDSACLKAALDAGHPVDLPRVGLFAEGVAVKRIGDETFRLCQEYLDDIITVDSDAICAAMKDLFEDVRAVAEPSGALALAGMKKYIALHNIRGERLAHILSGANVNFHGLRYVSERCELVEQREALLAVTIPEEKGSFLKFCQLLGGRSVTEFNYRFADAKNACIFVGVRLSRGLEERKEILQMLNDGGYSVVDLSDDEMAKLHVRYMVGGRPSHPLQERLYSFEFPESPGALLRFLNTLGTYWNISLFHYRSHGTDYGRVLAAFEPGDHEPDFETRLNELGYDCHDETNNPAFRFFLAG
Protocol: (§1) Before conducting further transformation experiments using the isolated ilvA alleles in transgenic plants, each allele was over-expressed in E. coli to determine its kinetic parameters. Kinetics data on threonine deaminases containing various mutations, and a comparison to data available for threonine deaminases from Arabidopsis, are provided in Table 4. The E. coli ilvA481 variants were subcloned into pSE380 (Invitrogen, Carlsbad, Calif.) and expression was induced with 0.2 mM IPTG at 37° C. for 3 hours. Expression of the E. coli alleles was high and fairly consistent as visualized by SDS-PAGE.
(§2) The effects of amino acid substitutions at Leu481 in ilvA were assessed by steady state kinetic analysis in the presence and absence of L-isoleucine. Threonine deaminase polypeptides for use in in vitro kinetics studies were extracted from E. coli cells in assay buffer containing 50 mM potassium phosphate (pH7.5), 1 mM dithiothreitol (DTT), and 0.5 mM ethylenediamine-tetraacetate. A continuous assay method was employed to monitor the formation of α-ketobutyrate directly at 230 nm (ε230 (pH7.5)=540 M^−1cm^−1 whereas threonine absorption was negligible (˜1%)). […] The kinetic parameters were determined by fitting the data points to the equations using GraFit 4.0 software (Erithacus Software, Surrey, UK). […]

[2] = target: Arabidopsis threonine deaminase, mutant OMR1 (polynucleotide SEQ ID NO: 22); conditions: mutant Arabidopsis (OMR1) TD, comparison data, cited from earlier work
[3] = target: T2, E. coli threonine deaminase (ilvA) variant L481T, SEQ ID NO: 8 (Escherichia coli, UniProt P04968, A120R/A140R/G195C/G334V/L481T/V121L); test: Threonine deaminase steady state kinetics, L481T; type: biochemical
T2 construct: made in house; host or cells: E. coli (pSE380, crude extract)
T2 sequence (P04968 whole entry A120R/V121L/A140R/G195C/G334V/L481T): as the sequence (P04968 whole entry A120R/V121L/A140R/G195C/G334V/L481P) above, with P481T counted along it
Protocol: as §1, §2

[4] = target: T3, E. coli threonine deaminase (ilvA), wild type, SEQ ID NO: 2 (Escherichia coli, UniProt P04968, A120R/A140R/G195C/G334V/V121L); test: Threonine deaminase steady state kinetics, E. coli wild type; type: biochemical
T3 construct: made in house; host or cells: E. coli (crude extract)
T3 sequence (P04968 whole entry A120R/V121L/A140R/G195C/G334V): as the sequence (P04968 whole entry A120R/V121L/A140R/G195C/G334V/L481P) above, with P481L counted along it
Protocol: as §1, §2

[5] = target: T4, E. coli threonine deaminase (ilvA) variant L447F (ilvA219), SEQ ID NO: 3 (Escherichia coli, UniProt P04968, A120R/A140R/G195C/G334V/L447F/V121L); test: Threonine deaminase steady state kinetics, L447F (ilvA219); type: biochemical
T4 construct: made in house; host or cells: E. coli (crude extract)
T4 sequence (P04968 1-514 A120R/V121L/A140R/G195C/G334V/L447F): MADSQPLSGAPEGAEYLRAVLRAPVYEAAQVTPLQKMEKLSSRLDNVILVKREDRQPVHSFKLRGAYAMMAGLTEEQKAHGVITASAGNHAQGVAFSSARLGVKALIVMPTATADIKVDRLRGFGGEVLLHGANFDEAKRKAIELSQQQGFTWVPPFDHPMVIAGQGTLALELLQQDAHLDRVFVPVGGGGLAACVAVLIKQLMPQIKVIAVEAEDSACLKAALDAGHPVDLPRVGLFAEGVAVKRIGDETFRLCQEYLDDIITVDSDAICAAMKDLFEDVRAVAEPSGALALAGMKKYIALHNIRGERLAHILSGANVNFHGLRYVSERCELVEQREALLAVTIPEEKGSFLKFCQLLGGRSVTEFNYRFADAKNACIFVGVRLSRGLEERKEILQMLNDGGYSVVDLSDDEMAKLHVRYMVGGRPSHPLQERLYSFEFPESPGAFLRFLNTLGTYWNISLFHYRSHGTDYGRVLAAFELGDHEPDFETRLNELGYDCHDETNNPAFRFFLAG

[6] = target: Arabidopsis threonine deaminase, wild type; conditions: wild type Arabidopsis TD, comparison data, cited from earlier work
[7] = target: T5, E. coli threonine deaminase (ilvA) variant L481I, SEQ ID NO: 10 (Escherichia coli, UniProt P04968, A120R/A140R/G195C/G334V/L481I/V121L); test: Threonine deaminase steady state kinetics, L481I; type: biochemical
T5 construct: made in house; host or cells: E. coli (pSE380, crude extract)
T5 sequence (P04968 1-514 A120R/V121L/A140R/G195C/G334V/L481I): T4 sequence (P04968 1-514 A120R/V121L/A140R/G195C/G334V/L447F) with F447L, L481I
Protocol: as §1
The effects of amino acid substitutions at Leu481 in ilvA were assessed by steady state kinetic analysis in the presence and absence of L-isoleucine. Threonine deaminase polypeptides for use in in vitro kinetics studies were extracted from E. coli cells in assay buffer containing 50 mM potassium phosphate (pH7.5), 1 mM dithiothreitol (DTT), and 0.5 mM ethylenediamine-tetraacetate. A continuous assay method was employed to monitor the formation of α-ketobutyrate directly at 230 nm (ε230 (pH7.5)=540 M^−1cm^−1 whereas threonine absorption was negligible (˜1%)). The assay was initiated by adding 20 μl of crude extract diluted 1:20 v/v to the assay vessel containing L-threonine (between 2.5 mM and 50 mM) in a final volume of 1 mL. For L-isoleucine inhibition, L-isoleucine was added between 0 mM and 20 mM. The kinetic parameters were determined by fitting the data points to the equations using GraFit 4.0 software (Erithacus Software, Surrey, UK). For comparison, the kcat values of L481 alleles were normalized to the kcat value for the wild type IlvA enzyme. Enzymes represented in FIG. 7 are: wild type E. coli threonine deaminase (circles), L481Y TD enzyme (diamonds), L481F TD enzyme (triangles), and the L481T TD enzyme (squares). Table 4 also summarizes the kinetic parameters of the variant threonine deaminase enzymes produced by the various E. coli ilvA alleles.

[8] = target: T6, E. coli threonine deaminase (ilvA) variant L481F (ilvA466), SEQ ID NO: 4 (Escherichia coli, UniProt P04968, A120R/A140R/G195C/G334V/L481F/V121L); test: biochemical; type: biochemical
T6 construct: made in house; host or cells: E. coli (pSE380, crude extract)
T6 sequence (P04968 whole entry A120R/V121L/A140R/G195C/G334V/L481F): as the sequence (P04968 whole entry A120R/V121L/A140R/G195C/G334V/L481P) above, with P481F counted along it
Protocol: as §1, §2

Structure (SMILES) | IC50 [1] | IC50 [2] | IC50 [3] | IC50 [4] | IC50 [5] | IC50 [6] | IC50 [7] | IC50 [8] | Km ([1]; read-out: Km^Thr, L481P, pMON25864, pH 7.5, L-threonine 2.5-50 mM) | Km ([2]; read-out: Km^Thr) | Km ([3]; read-out: Km^Thr, L481T, pMON25866, pH 7.5, L-threonine 2.5-50 mM) | Km ([4]; read-out: Km^Thr, E. coli wt, pMON25858, pH 7.5, L-threonine 2.5-50 mM) | Hill coefficient (n), substrate binding ([5]; L447F, pMON25859, negative cooperativity) | Km ([5]; read-out: Km^Thr, L447F, pMON25859, pH 7.5, L-threonine 2.5-50 mM) | Km ([6]; read-out: Km^Thr) | Hill coefficient (n), substrate binding ([7]; L481I, pMON25861, positive cooperativity) | Km ([7]; read-out: Km^Thr, L481I, pMON25861, pH 7.5, L-threonine 2.5-50 mM) | Km ([8]; read-out: Km^Thr, L481F, pMON25857, pH 7.5, L-threonine 2.5-50 mM)
CC[C@H](C)[C@H](N)C(=O)O [L-isoleucine] | 650 µM | 500 µM | 449 µM | 56 µM | > 20000 µM | 10 µM | 134 µM | 800 µM |  |  |  |  |  |  |  |  |  | 
C[C@@H](O)[C@H](N)C(=O)O [L-threonine] |  |  |  |  |  |  |  |  | 8.8 mM | 3.6 mM | 3.4 mM | 8.3 mM | 0.5 | 1.7 mM | 2.8 mM | 1.6 | 7.6 mM | 4 mM
